Our source for the cytotoxicity values is ChEMBL document CHEMBL3507680, “University of Dundee, Gates Library screen for HepG2 cell viability”.

The nature of this data set: Human HepG2 cell viability assay in 384 well format. Format: toxicity, cell-based. Set-up: dose 125 nL, time 70.5 hour; cytotoxicity at 70.5 h: concentration not given beside the values. Particulars: HepG2 cells, read-out: Inhibition.
Consider `CCN(CC)S(=O)(=O)c1ccc(C(=O)NC(C)(C)C)cc1`, for which the cytotoxicity at 70.5 h worked out at 35.7%.
`Cc1nnc2n1CC(CNCc1nc(-c3ccsc3)no1)CC2` (stereo not given): the cytotoxicity at 70.5 h is -14.6%.
With `O=C(CN1CCCc2sccc2C1=O)NC1CCc2nccn2C1` (stereo not given) the figure was 23.3%.
The figure for `CN(C)c1ccc(NC(=O)CN2CCS(=O)(=O)CC2)cn1` is -0.4%; for `CC(C)Oc1cccc(CC(=O)NC2CCN(CC(N)=O)CC2)c1` it is -10.1%; for `Cc1nc2cc(=O)[nH]n2c(C)c1CC(=O)NC(C)C` it is -7.48%.
The figure for `Cc1cc(F)ccc1S(=O)(=O)NCc1[nH]ncc1Br` is -7.73%; for `CCc1nnc2n1CC(CNCc1nc(-c3ccsc3)no1)CC2` (stereo not given) it is -4.57%; for `COc1cccc(COC(C)C(=O)NC2CCN(CC(N)=O)CC2)c1` (stereo not given) it is -7.36%.
Consider `Cc1ccc(S(=O)(=O)NCc2[nH]ncc2Br)cc1F`, for which the cytotoxicity at 70.5 h was -1.86%.
As to `Cc1ccccc1C(C)NC(=O)Cc1c(C)nc2cc(=O)[nH]n2c1C` (stereo not given), the cytotoxicity at 70.5 h is -10.1%.
In the case of `Brc1cnc(NCCCOCC2CCOC2)nc1` (stereo not given), the cytotoxicity at 70.5 h was -5.54%.
The figure for `Brc1cnc(NCCCOC2CCOCC2)nc1` is -6.88%; for `N#Cc1cn(C2CC2)c(=O)n(Cc2cc(-c3cccs3)on2)c1=O` it is -6.97%.
With `CN1CCCN(S(=O)(=O)c2cnn(C)c2)c2cc(Cl)ccc21` the figure was -3.72%; with `Cc1nnc2n1CC(CNCc1nc(-c3cccs3)no1)CC2` (stereo not given), 18.6%.
With `CN1CCCN(S(=O)(=O)c2cn(C)cn2)c2cc(Cl)ccc21` the figure was -0.299%.
With `CN1CCCN(S(=O)(=O)c2cn(C)cn2)c2cc(F)ccc21`, the cytotoxicity at 70.5 h amounted to 4.76%.
With `CN(C)CC(C)(O)CNC(=O)Nc1sc2ccccc2c1Cl` (stereo not given) the figure was 8.3%; with `CCOCC(O)CNc1cncc(Br)c1` (stereo not given), -1.77%.
The figure for `CS(=O)(=O)NC1CCN(C(=O)CCC2CCCO2)CC1` (stereo not given) is -0.0133%; for `Brc1ccc(NCCCOC2CCOCC2)nc1` it is -1.01%.
In the case of `CCOc1ccc(N(C)Cc2nc(C)c(C)o2)cc1`, the cytotoxicity at 70.5 h came out at 15.3%.
The figure for `CCOc1ccc(N(C)Cc2nnc(C3CC3)o2)cc1` is -2.24%; for `CCN(CCNS(=O)(=O)C1CCOCC1)C(=O)OC(C)(C)C` it is -5.67%; for `CN(Cc1ccc(C#N)cc1)C(=O)c1ccn(C)c(=O)c1` it is -9.77%.
With `Cc1cc(C(=O)NC(C)Cc2ccccc2Cl)n(C)n1` (stereo not given) the figure was -7.08%.
The figure for `CN(C)CCN(Cc1ccc(C#N)cc1)C(=O)c1ccn(C)c(=O)c1` is 24.8%.
As to `COCCOc1cccc(CNCc2ccc(-n3cncn3)nc2)c1`, the cytotoxicity at 70.5 h was -4.01%.
Turning to `CC(C)(C)OC(=O)N(CCNS(=O)(=O)N1CCOCC1)C1CC1`, the cytotoxicity at 70.5 h was -3.4%.
The figure for `COc1c(C)cnc(CN2CCn3c(C)nnc3C2)c1C` is -3.41%; for `COC(=O)CNC(=O)c1ccn(-c2ccc(Cl)c(Cl)c2)n1` it is -2.3%; for `CNC(=O)COC(=O)c1ccn(-c2ccc(Cl)c(Cl)c2)n1` it is 24.2%.
The figure for `COc1c(C)cnc(CN2CCn3c(nnc3C(C)C)C2)c1C` is -1.82%; for `CS(=O)(=O)NC(=O)c1ccn(-c2ccccc2Cl)n1` it is -1.86%.
The figure for `Cc1ncc(CNC(=O)NCC(C)Oc2ccccc2F)s1` (stereo not given) is -3.22%.
As for `Cc1ncc(CNC(=O)NCc2c(F)cccc2OC(F)F)s1`, the cytotoxicity at 70.5 h was -0.321%.
As to `O=C(Nc1ccc(-c2csnn2)cc1)NC(CCO)C1CC1` (stereo not given), the cytotoxicity at 70.5 h stood at 18%.
With `CNS(=O)(=O)CC(=O)N1CCC(c2cc3ccccc3[nH]2)CC1` the figure was 1.33%; with `O=C(NCc1ccon1)Nc1cc(F)ccc1N1CCCCC1`, 0.987%; with `COC(=O)c1ncccc1N1CCCC1`, -2.82%.
Turning to `CS(=O)(=O)NC(=O)c1ccn(-c2ccc(Cl)c(Cl)c2)n1`, the cytotoxicity at 70.5 h was -3.09%.
With `CCS(=O)(=O)NCC(=O)N1CCC(c2cc3ccccc3[nH]2)CC1` the figure was 1.52%; with `CN1CCN(c2ccc(F)cc2NC(=O)NCc2ccon2)CC1`, 0.112%; with `O=S(=O)(NC1CCCOC1)c1ccc(C(F)(F)F)nc1` (stereo not given), -1.78%.
Turning to `CC(O)c1cccc(OCc2ccon2)c1` (stereo not given), the cytotoxicity at 70.5 h was -2.61%.
With `CN(Cc1nnnn1C1CC1)CC1COc2ccccc2O1` (stereo not given) the figure was -0.558%.
The figure for `CN(C)CCN(Cc1ccc(F)cc1)C(=O)c1ccn(C)c(=O)c1` is -5.2%; for `COC(=O)c1cccc(C(=O)N(CCC#N)CC(C)(C)C)c1` it is 1.22%; for `c1ccc(N2CCC(OCC3CCCCO3)CC2)nc1` (stereo not given) it is 0.314%.
On to `Clc1ccc(N2CCC(OCC3CCCCO3)CC2)nc1` (stereo not given), for which the cytotoxicity at 70.5 h is -1.36%.
For `CC(C)n1cnnc1SCCN(C)c1ccccc1`, the cytotoxicity at 70.5 h was -6.85%.
The figure for `CCCOc1cccc(OCc2ccon2)c1` is -7.15%; for `COCCN(C)C(C)Cc1ccccc1OC` (stereo not given) it is -11.8%; for `CCOCc1ccc(NC(=O)N2CCOC3(CCC3)C2)cc1` it is -5.85%.
For the molecule `CC(NC(=O)CCCN(C)C)c1cn(-c2ccccc2)nn1` (stereo not given), the cytotoxicity at 70.5 h amounted to 20.9%.
Regarding `CC(C)CCC(=O)N1CCC2(CC1)OCCO2`, the cytotoxicity at 70.5 h is -4.64%.
The figure for `CCCC(=O)N1CCC2(CC1)OCCO2` is -2.35%.
With `CN(C)c1cc(CNC(=O)CC2CCCCC2)ccn1` the figure was -5.82%; with `CNS(=O)(=O)c1ccc(C(=O)NCc2ccnc(OC)c2)cc1`, -10%; with `COc1cc(C)ccc1OCCC(=O)N1CCC(C(N)=O)C1` (stereo not given), -10.8%.
In the case of `NC(=O)C(Nc1ccc(Cl)cc1)c1ccc(F)cc1` (stereo not given), the cytotoxicity at 70.5 h was -0.513%.
Consider `O=C(NCCc1coc(-c2ccc(F)cc2)n1)NCC1CCOC1` (stereo not given), for which the cytotoxicity at 70.5 h was found to be 20.9%.
The figure for `CNS(=O)(=O)CC(=O)NC(c1cc(C)sc1C)C(C)C` (stereo not given) is 2.55%.
As to `Cc1cnn(Cc2ccc(NC(=O)N3CCCC3)cc2)c1`, the cytotoxicity at 70.5 h is -3.9%.
As to `CCc1nc(Cn2c(=O)c3c(C(F)(F)F)cc(C)nc3n2C)no1`, the cytotoxicity at 70.5 h was determined as 0.468%.
With `Cc1cc(C(F)(F)F)c2c(=O)n(Cc3ccon3)n(C)c2n1` the figure was -5.27%; with `CC(O)(CNC(=O)NCCc1ccc2c(c1)CCO2)c1ccccc1` (stereo not given), -0.353%.
The figure for `CSc1ccc(NC(=O)Cn2cc(N)cn2)cc1` is -6.5%; for `O=C(C1CC(c2cccc(F)c2)=NO1)N1CCc2ccccc21` (stereo not given) it is -4.18%.
With `O=c1ccc(S(=O)(=O)N2CCCC2)cn1CC1CCCCO1` (stereo not given) the figure was -11.1%.
On to `Cc1ccc(OCCn2cnc3oc(C)c(C(=O)O)c3c2=O)cc1`, for which the cytotoxicity at 70.5 h was 19.9%.
With `CCN(CC)c1nc2sc(C(=O)N3CCNC(=O)C3)cc2s1` the figure was -8.64%; with `Cc1noc(C2CCCN(Cn3cc(Cl)cn3)C2)n1` (stereo not given), -1.46%; with `CCc1c(C)[nH]c(C2(N)CCCC2)nc1=O`, -2.07%.
